# In PMC12227560, “Total synthesis of a sorrentanone ester library and evaluation of its antimicrobial potential” (Scientific Reports, 2025):
# Experiments:
# [1] = tested on: human lung fibroblast cell line (MRC-5); test: Cytotoxicity evaluation by MTT assay; assay type: cell-based; conditions: for cell survival: MRC-5 cells, 10 µg/mL, 48 h
# Text: 3. Bioactivity and Toxicity Assays
# Antimicrobial assay: According to the standard broth micro-dilution assays, following the Standards of European Committee on Antimicrobial Susceptibility Testing (v 7.3.1: Method for the determination of broth dilution minimum inhibitory concentrations of antifungal agents for yeasts) for Candida spp., and according to the standard broth micro-dilution assays, recommended by the National Committee for Clinical Laboratory Standards (M07-A8) for bacteria MIC values of compounds were determinate. Compounds were dissolved in DMSO at a concentration of 50 mg/mL, and the highest tested concentration was 250 µg/mL. The inoculums were 1x10^5 colony forming units (CFU/mL), for Candida species, and bacteria species, 5x10^5 colony forming units (CFU/mL). The MIC value was recorded as the lowest concentration that inhibited the growth after 24 h at 37 °C. Additionally, 5 µL from each well of 96 well plates was transferred to Luria Agar (LA) plates for bacteria and Sabouraud agar (SAB) plates for Candida spp. and incubated for an additional 24 h at 37 °C, to determine MBC (Minimum bactericidal/fungicidal concentration) values. In Table 1. Are labeled compounds showing a difference in MBC and previously determined MIC values.
# Cytotoxicity evaluation: Antiproliferative activity was tested by MTT assay (3-(4,5-dimethylthiazol-2-yl)-2,5-diphenyltetrazoliumbromide) on a human lung fibroblast cell line (MRC-5; ATCC collection). Pre-grown (24 h) cell monolayers (1x10^4 cells per well) in RPMI 1640 medium supplemented with 100 μg/mL streptomycin, 100 U/mL penicillin, and 10% (v/v) FBS (all from Sigma, Munich, Germany) containing the tested compounds at concentrations ranging from 5 to 20 μg/mL were incubated in a humidified atmosphere of 95% air and 5% CO2 at 37 °C for 48 h. The cell viability (extent of MTT reduction) was measured spectrophotometrically at 540 nm using the Epoch 2000 multiplate reader, and the cell survival was expressed as a percentage of the control (untreated cells). Cytotoxicity was expressed as the concentration of the compound inhibiting cell growth by 50% (IC 50). […]
# [2] = tested on: C. albicans ATCC10231 biofilm formation; test: Anti-biofilm activity assessment (crystal violet); assay type: cell-based, Candida albicans; conditions: for inhibition of biofilm formation (in words): data not shown
# Protocol: Anti-biofilm activity assessment: The effect of compounds on biofilms formation was determined on C. albicans ATCC 10231 strain. Anti -biofilm assays were conducted using a previously reported methodology with small modifica tions.9 The assay was carried out in 96 - well round-bottom polystyrene microtiter plates. Cells wer e harvested from overnight grown cultures, washed twice with sterile phosphate -buffered saline (PBS; Sigma -Aldrich, Munich, Germany), and resuspended in RPMI 1640 medium (Sigma -Aldrich) containing 2% glucose (w/v) at a concentration of 1 × 10^5 CFU/mL. C. albicans suspension was incubated with 0.5 MIC, 1 MIC, and 2 MIC compounds concentration in 200.0 μL final volume per well for 48 h at 37 °C to allow biofilm formation. Biofilm growth was analyzed by crystal violet (CV) staining of adherent cells and the a bsorbance at 590.0 nm was read on a Tecan Infinite 200 Pro multiplate reader (Tecan Group Ltd., Männedorf, Switzerland). […]
SMILES,cell survival [1],"selectivity index (SI) ([1]; cytotoxicity versus antibiotic activity, calculation not described)",inhibition of biofilm formation (in words) [2],"inhibition of biofilm formation ([2]; sub-inhibitory concentration (0.5 times MIC), 48 h)"
CC1=C(O)C(=O)C(C)=C(C(=O)OCc2ccccc2)C1=O [compound 41],over 60%,0.77,displayed inhibition of biofilm formation,60–77%
CC1=C(O)C(=O)C(C)=C(C(=O)OCCCC(C)C)C1=O [compound 36],over 60%,,displayed inhibition of biofilm formation,
